# Data reported in the supplement of paper PMC10307832.
# Columns and labels:
# Assay in all cases: relative viability (nuclei count vs DMSO), 5 days (fraction); higher = more cells survive
# [1] = compound: C1CC(C2=C(C1)C3=C(N2)C=CC(=C3)Cl)C(=O)N [Selisistat] + COc1cccc2cc(-c3nc([C@H]4CC[C@H](C(=O)O)CC4)n4ncnc(N)c34)[nH]c12 [OSI-027] (partner 0.5 µM)
# Procedure, shortened: (§1)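 Lung cancer cell lines, seeded in 1536-well plates, were treated the following day by pin tool with a single drug or with five library-drug doses (not always all listed) in √10 steps on top of a fixed anchor-drug dose. Cells were fixed and nuclei stained in one step after 5 days, and nuclei were counted. Relative viability is the nuclei count for treated wells divided by that for vehicle wells, reported as medians of duplicate plates.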
# [2] = compound: C1CC(C2=C(C1)C3=C(N2)C=CC(=C3)Cl)C(=O)N [Selisistat] + C[C@]1(O)C[C@@H](c2nc(-c3ccc4ccc(-c5ccccc5)nc4c3)c3c(N)nccn32)C1 [Linsitinib] (partner 1 µM)
# Procedure, shortened: as §1
# [3] = compound: C1CC(C2=C(C1)C3=C(N2)C=CC(=C3)Cl)C(=O)N [Selisistat] + N=C(N)NC(=N)NCCc1ccccc1 [Phenformin] (partner 250 µM)
# Procedure, shortened: as §1
# [4] = compound: c1ccc2c(CCNc3ccc(Nc4ccncc4)cc3)c[nH]c2c1 [Serdemetan] + CCNC(=O)c1noc(-c2cc(C(C)C)c(O)cc2O)c1-c1ccc(CN2CCOCC2)cc1 [Luminespib] (partner 0.01 µM)
# Procedure, shortened: as §1
Cell Line,relative viability ([1]; first compound 0.4 µM),relative viability ([1]; first compound 1.265 µM),relative viability ([1]; first compound 4 µM),relative viability ([1]; first compound 12.65 µM),relative viability ([1]; first compound 40 µM),relative viability ([2]; first compound 0.4 µM),relative viability ([2]; first compound 1.265 µM),relative viability ([2]; first compound 4 µM),relative viability ([2]; first compound 12.65 µM),relative viability ([2]; first compound 40 µM),relative viability ([3]; first compound 0.4 µM),relative viability ([3]; first compound 1.265 µM),relative viability ([3]; first compound 4 µM),relative viability ([3]; first compound 12.65 µM),relative viability ([3]; first compound 40 µM),relative viability ([4]; first compound 0.04 µM),relative viability ([4]; first compound 0.1265 µM),relative viability ([4]; first compound 0.4 µM),relative viability ([4]; first compound 1.265 µM),relative viability ([4]; first compound 4 µM)
EMC-BAC-2,0.391,0.358,0.462,0.362,0.342,0.87,0.787,0.777,0.753,0.813,0.514,0.502,0.567,0.517,0.493,1.14,1.12,1.13,0.616,0.636
NCI-H2405,0.674,0.579,0.598,0.674,0.666,0.975,–,–,0.948,0.885,0.401,0.333,0.222,0.393,0.397,0.716,0.664,0.64,0.573,0.596
NCI-H358,0.926,0.802,0.363,0.709,0.905,0.722,0.726,–,0.687,0.68,0.358,0.281,0.186,0.332,0.412,0.63,0.351,0.254,0.465,0.207
NCI-H1944,0.485,0.394,–,0.433,0.441,1.15,1.17,–,1.21,1.18,0.209,0.201,–,0.196,0.214,0.664,0.679,0.691,0.249,0.306
EPLC-272H,0.274,0.237,–,0.289,0.289,1.24,1.2,–,1,1.2,0.302,0.322,–,0.288,0.296,0.307,0.401,0.373,0.252,0.602
NCI-H1915,0.678,0.646,0.425,0.605,0.646,1.15,1.09,1.14,1.08,1.13,0.377,0.356,0.368,0.355,0.368,0.74,0.73,0.672,0.514,0.532
NCI-H596,0.793,0.692,0.505,0.698,0.732,1,1.11,1.03,1.23,0.999,0.742,0.816,0.584,0.593,0.716,1.02,0.955,0.861,0.59,0.602
NCI-H322M,0.607,0.583,0.461,0.507,0.576,1,1.03,–,0.959,0.976,0.768,0.837,0.656,0.77,0.915,0.807,0.845,0.772,0.861,0.678
NCI-H2228,0.57,0.541,0.484,0.651,0.569,0.857,0.566,0.562,0.656,0.598,0.301,0.271,0.205,0.295,0.307,0.119,0.201,0.159,0.16,0.145
